Reference: US20060234987A1, “Neuroprotective benzo 1 3 oxathiol 2 ones” (priority 2003, published 2006)
“Also recorded” adds a separate entry of the source.

Assays:
[1] = tested on: TrkA; assay: TrkA Phosphorylation Assay in PC12 cells; assay type: cell-based; settings: compound 10-50 μM, NGF 10 ng/mL, compared with NGF 50 ng/mL, Western blot/autoradiograph
Experimental: Lane PC12 624 cells not treated with NGF; Lane B—PC12 624 cells treated with NGF (50 ng/mL) for 24 hrs; Lane C—PC12 624 cells treated with NGF (50 ng/mL) for 30 minutes; Lane D—PC12 624 cells treated with NGF (10 ng/mL) and compound 23 (50 μM); Lane E—PC12 624 cells treated with NGF (10 ng/mL) and compound 23 (40 μM), Lane F—PC12 624 cells treated with NGF (10 ng/mL) and compound 23 (30 μM); Lane G—PC12 624 cells treated with NGF (10 ng/mL) and compound 23 (20 μM); Lane H—PC12 624 cells treated with a NGF (10 ng/mL) and compound 23 (10 μM); Lane I—PC12 624 cells treated with NGF (50 ng/mL) for 24 hours, and re-treated with NGF (50 ng/mL) for 30 minutes; Lane J—PC12 624 cells treated with NGF (50 ng/mL) for 30 minutes.
TrkA phosphorylation may be monitored using Trk anti-bodies and Western blot analysis. […] In PC12 expressing cells, this effect is most robust at 30 minutes when 50 ng/mL of NGF is used.
TrkA Phosphorylation Assay: Culture media was removed from cultured PC12 cells (106-107, 50% confluent) and media containing NGF (1 to 50 ng/mL), 0.1% BSA, and compound (1 to 30 μM) was added. The cells were incubated for 1 to 60 minutes, the media was removed and the cells washed twice with ice cold TBS solution. […]

[2] = biological target: T1, CD45 (Homo sapiens, UniProt P08575); assay: CD45 (PTPase) Assay; assay type: biochemical; settings: Table 6
T1 construct: purchased BIOMOL Research Laboratories, Inc
T1 sequence (P08575 26-1306): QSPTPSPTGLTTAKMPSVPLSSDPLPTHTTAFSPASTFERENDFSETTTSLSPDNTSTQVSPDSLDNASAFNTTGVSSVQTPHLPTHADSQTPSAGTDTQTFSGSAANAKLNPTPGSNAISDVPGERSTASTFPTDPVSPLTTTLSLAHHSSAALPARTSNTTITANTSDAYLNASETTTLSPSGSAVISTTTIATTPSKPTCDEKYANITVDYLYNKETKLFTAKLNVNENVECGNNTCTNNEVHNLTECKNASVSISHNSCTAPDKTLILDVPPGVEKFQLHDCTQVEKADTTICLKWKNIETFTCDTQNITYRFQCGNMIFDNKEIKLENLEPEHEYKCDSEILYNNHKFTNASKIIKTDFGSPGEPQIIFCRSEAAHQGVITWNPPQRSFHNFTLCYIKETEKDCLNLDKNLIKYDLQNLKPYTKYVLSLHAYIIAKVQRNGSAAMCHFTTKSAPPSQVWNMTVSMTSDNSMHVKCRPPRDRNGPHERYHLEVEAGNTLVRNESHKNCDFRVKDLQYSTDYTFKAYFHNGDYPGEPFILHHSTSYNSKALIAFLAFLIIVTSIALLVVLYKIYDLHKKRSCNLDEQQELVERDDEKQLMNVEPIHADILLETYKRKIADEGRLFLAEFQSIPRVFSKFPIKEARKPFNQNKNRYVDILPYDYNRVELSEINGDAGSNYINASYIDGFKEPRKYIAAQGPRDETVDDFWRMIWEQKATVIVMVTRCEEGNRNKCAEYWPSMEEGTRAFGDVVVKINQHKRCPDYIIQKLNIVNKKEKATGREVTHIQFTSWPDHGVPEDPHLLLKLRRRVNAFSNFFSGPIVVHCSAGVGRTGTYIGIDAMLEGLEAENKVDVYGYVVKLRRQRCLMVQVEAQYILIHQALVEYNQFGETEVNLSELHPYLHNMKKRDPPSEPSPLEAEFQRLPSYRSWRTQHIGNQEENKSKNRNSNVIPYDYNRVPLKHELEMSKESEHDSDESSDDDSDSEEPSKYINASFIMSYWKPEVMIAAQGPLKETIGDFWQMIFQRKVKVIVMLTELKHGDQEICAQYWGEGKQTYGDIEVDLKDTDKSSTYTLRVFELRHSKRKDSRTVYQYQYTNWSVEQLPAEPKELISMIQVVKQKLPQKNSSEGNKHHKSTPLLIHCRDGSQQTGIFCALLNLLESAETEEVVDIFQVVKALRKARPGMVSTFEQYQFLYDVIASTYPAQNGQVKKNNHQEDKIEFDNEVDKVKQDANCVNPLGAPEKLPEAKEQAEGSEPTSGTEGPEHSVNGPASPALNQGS
Experimental: D) CD45 (PTPase) Assay: Inhibition of the phosphatase CD45 was performed according to reported procedures (Pacitti, A. et al Biochem. Biophys. Acta, 1994, 1222, 277; Fisher, D. K. and Higgins, T. J. Pharmacol. Res., 1994, 11, 759). CD45 was purchased from BIOMOL Research Laboratories, Inc.

SMILES	TrkA phosphorylation [1]	C45 IC50 [2]
O=c1oc2c(Sc3ccc4ccccc4c3)cc(O)cc2s1 [Compound 23, 5-Hydroxy-7-((2-naphthy)sulfanyl)benzo[1,3]oxathiol-2-one]	maintains the level of TrkA phosphorylation even after 24 hours; also recorded: Comparable levels of TrkA phosphorylation	no inh.
O=c1oc2c(Sc3ccc4ccccc4c3)cc(O)c(Sc3ccc4ccccc4c3)c2s1 [Compound 30, 4,7-Bis-((2-naphthyl)sulfanyl)-5-hydroxybenzo[1,3]oxathiol-2-one]		no inh.
